Source: ChEMBL document CHEMBL3508140 (2016)

Legend:
[1] = Terminal half-life of epirubicinol-glucuronide following intravenous epirubicin at 3 mg.Kg-1 dose in rabbit; assay type: ADME, organism-based, Oryctolagus cuniculus, New Zealand White, Plasma; conditions: in vivo
[2] = Urinary excretion of epirubicin glucuronide following epirubicin at 60-150 mg.m-2 dose in cancer patients; assay type: ADME, organism-based, Urine; conditions: human, in vivo
[3] = Biliary excretion of epirubicinol glucuronide following epirubicin at 50 mg.m-2 dose in cancer patients; assay type: ADME, organism-based, Bile; conditions: human, in vivo; at 50 mg/m2
[4] = Terminal half-life of epirubicinol-glucuronide following intravenous epirubicin at 1 mg.Kg-1 dose in rabbit; assay type: ADME, organism-based, Oryctolagus cuniculus, New Zealand White, Plasma; conditions: in vivo
[5] = Recovery of epirubicinol-glucuronide following intraperitoneal epirubicin at 4 mg.Kg-1 dose in mouse; assay type: ADME, organism-based, CD-1, Plasma; conditions: in vivo, ip
[6] = AUC(0-2 h) of epirubicin-glucuronide following intravenous epirubicin at 1 mg.Kg-1 dose in rabbit; assay type: ADME, organism-based, Oryctolagus cuniculus, New Zealand White, Plasma; conditions: in vivo
[7] = (§1) Urinary excretion of epirubicinol glucuronide following epirubicin at 50 mg.m-2 dose in cancer patients; assay type: ADME, organism-based, Urine; conditions: human, in vivo; at 50 mg/m2
[8] = (§2) Terminal half-life of epirubicin-glucuronide following intravenous epirubicin at 1 mg.Kg-1 dose in rabbit; assay type: ADME, organism-based, Oryctolagus cuniculus, New Zealand White, Plasma; conditions: in vivo
[9] = AUC(0-2 h) of epirubicinol-glucuronide following intravenous epirubicin at 3 mg.Kg-1 dose in rabbit; assay type: ADME, organism-based, Oryctolagus cuniculus, New Zealand White, Plasma; conditions: in vivo
[10] = Recovery of epirubicin-glucuronide following intraperitoneal epirubicin at 4 mg.Kg-1 dose in hamster; assay type: ADME, organism-based, Cricetulus griseus, Plasma; conditions: chinese hamster, in vivo, ip
[11] = as §2; assay type: ADME, organism-based, Oryctolagus cuniculus, New Zealand White, Plasma; conditions: in vivo; remark: listed apart in the source
[12] = Recovery of epirubicinol-glucuronide following intravenous epirubicin at 4 mg.Kg-1 dose in rat; assay type: ADME, organism-based, SD, Plasma; conditions: in vivo
[13] = AUC(0-2 h) of epirubicin-glucuronide following intravenous epirubicin at 3 mg.Kg-1 dose in rabbit; assay type: ADME, organism-based, Oryctolagus cuniculus, New Zealand White, Plasma; conditions: in vivo
[14] = as §1; assay type: ADME, organism-based, Urine; conditions: human, in vivo; at 50 mg/m2; remark: listed apart in the source
[15] = Urinary excretion of epirubicinol glucuronide following epirubicin at 60-150 mg.m-2 dose in cancer patients; assay type: ADME, organism-based, Urine; conditions: human, in vivo
[16] = Recovery of epirubicin-glucuronide following intraperitoneal epirubicin at 4 mg.Kg-1 dose in mouse; assay type: ADME, organism-based, CD-1, Plasma; conditions: in vivo, ip
[17] = (§3) Urinary excretion of epirubicin glucuronide following epirubicin at 50 mg.m-2 dose in cancer patients; assay type: ADME, organism-based, Urine; conditions: human, in vivo; at 50 mg/m2
[18] = Recovery of epirubicin-glucuronide following intravenous epirubicin at 4 mg.Kg-1 dose in rat; assay type: ADME, organism-based, SD, Plasma; conditions: in vivo
[19] = Urinary excretion of epirubicinol glucuronide following epirubicin at 75-90 mg.m-2 dose in cancer patients; assay type: ADME, organism-based, Urine; conditions: human, in vivo
[20] = AUC(0-2 h) of epirubicinol-glucuronide following intravenous epirubicin at 1 mg.Kg-1 dose in rabbit; assay type: ADME, organism-based, Oryctolagus cuniculus, New Zealand White, Plasma; conditions: in vivo
[21] = (§4) Terminal half-life of epirubicin-glucuronide following intravenous epirubicin at 3 mg.Kg-1 dose in rabbit; assay type: ADME, organism-based, Oryctolagus cuniculus, New Zealand White, Plasma; conditions: in vivo
[22] = Recovery of epirubicinol-glucuronide following intravenous epirubicin at 1.5 mg.Kg-1 dose in man; assay type: ADME, organism-based, Plasma; conditions: human, in vivo
[23] = Urinary excretion of epirubicinol glucuronide following epirubicin at 60 mg.m-2 dose in cancer patients; assay type: ADME, organism-based, Urine; conditions: human, in vivo; at 60 mg/m2
[24] = Recovery of epirubicin-glucuronide following intravenous epirubicin at 1.5 mg.Kg-1 dose in man; assay type: ADME, organism-based, Plasma; conditions: human, in vivo
[25] = Recovery of epirubicinol-glucuronide following intravenous epirubicin at 4 mg.Kg-1 dose in rabbit; assay type: ADME, organism-based, Oryctolagus cuniculus, New Zealand White, Plasma; conditions: in vivo
[26] = Recovery of epirubicinol-glucuronide following intraperitoneal epirubicin at 4 mg.Kg-1 dose in hamster; assay type: ADME, organism-based, Cricetulus griseus, Plasma; conditions: chinese hamster, in vivo, ip
[27] = as §3; assay type: ADME, organism-based, Urine; conditions: human, in vivo; at 50 mg/m2; remark: listed apart in the source
[28] = Urinary excretion of epirubicin glucuronide following epirubicin at 60 mg.m-2 dose in cancer patients; assay type: ADME, organism-based, Urine; conditions: human, in vivo; at 60 mg/m2
[29] = Urinary excretion of epirubicin glucuronide following epirubicin at 75-90 mg.m-2 dose in cancer patients; assay type: ADME, organism-based, Urine; conditions: human, in vivo
[30] = Biliary excretion of epirubicin glucuronide following epirubicin at 50 mg.m-2 dose in cancer patients; assay type: ADME, organism-based, Bile; conditions: human, in vivo; at 50 mg/m2
[31] = Recovery of epirubicin-glucuronide following intravenous epirubicin at 4 mg.Kg-1 dose in rabbit; assay type: ADME, organism-based, Oryctolagus cuniculus, New Zealand White, Plasma; conditions: in vivo
[32] = as §4; assay type: ADME, organism-based, Oryctolagus cuniculus, New Zealand White, Plasma; conditions: in vivo; remark: listed apart in the source

- t1/2 [1]: 23.4 min
- Compound recovery [2]: 1.3%
- Compound recovery [3]: 1.9%
- t1/2 [4]: 12.6 min
- Compound recovery [5]: 0 10^-9M
- AUC [6]: 7.64 ng·h/mL
- Compound recovery [7]: 1.7%
- t1/2 [8]: 61.2 min
- AUC [9]: 4.01 ng·h/mL
- Compound recovery [10]: 0 10^-9M
- t1/2 [11]: 9 min
- Compound recovery [12]: 0 10^-9M
- AUC [13]: 15.83 ng·h/mL
- Compound recovery [14]: 0.4%
- Compound recovery [15]: 0.3%
- Compound recovery [16]: 0 10^-9M
- Compound recovery [17]: 4.6%
- Compound recovery [18]: 0 10^-9M
- Compound recovery [19]: 0.8%
- AUC [20]: 1.47 ng·h/mL
- t1/2 [21]: 29.4 min
- Compound recovery [22]: 90 10^-9M
- Compound recovery [23]: 0.8%
- Compound recovery [24]: 460 10^-9M
- Compound recovery [25]: 0.5 10^-9M
- Compound recovery [26]: 0 10^-9M
- Compound recovery [27]: 3.3%
- Compound recovery [28]: 3.2%
- Compound recovery [29]: 3.2%
- Compound recovery [30]: 4.6%
- Compound recovery [31]: 1.7 10^-9M
- t1/2 [32]: OUTCOME = Not calculated
Structure (SMILES): COc1cccc2c1C(=O)c1c(O)c3c(c(O)c1C2=O)C[C@@](O)(C(=O)CO)C[C@@H]3O[C@H]1C[C@H](N)[C@@H](O[C@@H]2O[C@H](C(=O)O)[C@@H](O)[C@H](O)[C@H]2O)[C@H](C)O1
